{"source": "patent US12319678B2", "about": "“Thioridazine derivatives and their use for the treatment of cancer” (UNIVERSITA' DEGLI STUDI DI PADOVA, priority 2019, dated 2025)", "key": {"[1]": {"tested_on": "SHI-1, an AML cell line with the genetic aberrancy t(6;11)", "test": "Apoptosis assay (Annexin-V/propidium iodide) in t(6;11) SHI-1 cells", "type": "cell-based", "details": "for cytotoxic activity on t(6;11) AML cells (cell death): SHI-1, 24 h after treatment, compared with TDZ; for apoptotic and dead cells: relative to DMSO", "method": "(§1) Apoptosis was evaluated by double staining with Annexin-V/propidium iodide (Roche Biochemicals, Indianapolis, IN) and analyzed using Cytometer F C500 (Beckman Coulter, Brea, CA). Increased apoptosis was calculated and expressed as the percentage of Annexin-V-positive and propidium iodide-positive cells compared to those exposed to DMSO."}, "SHI-1 cells": {"tested_on": "SHI-1 cells", "test": "Intracellular Ca2+ measurement (Fluo-4 AM) in SHI-1 cells", "type": "cell-based", "details": "for mechanism of Ca2+ influx: SHI-1, Ca2+-containing or Ca2+-free buffer", "method": "(§2) Intracellular Ca^2+ levels were monitored by Fluo-4 AM fluorescence according to the manufacturer's instructions. Briefly, cells were washed in Hanks Balanced Salt Solutions, incubated with Fluo-4 AM 3 μM diluted in the working buffer (0.02% w/v Pluronic and 0.2 mM sulfinpyrazone, both sourced from Sigma-Aldrich-Merck, in 10 mM HEPES-buffered Hanks) for 30′ at RT. After incubation, cells were washed and resuspended in working buffer with CaCl2) 0.2 mg/I for 30′, to allow the de-esterification of Fluo-4 AM. Results were evaluated using the FC500 cytometer, and 2-photon microscope Thorlabs. In both experiments, the mean fluorescence intensity (MFI) was detected at basal condition, and up to 5 minutes after treatment."}, "NSG mice": {"tested_on": "NSG mice", "test": "Stepping test (akinesia, neuroleptic effects)", "type": "in vivo", "details": "for neuroleptic effects (akinesia, stepping test): i.p., 36.85 μmol/Kg (corresponding to 15 mg/kg of TDZ), 1 h after injection", "method": "Twelve NSG mice between 6 and 8 weeks of age were randomized in 4 groups (DMSO, thioridazine (TDZ), compound according to Example 1 (TDZ2) and compound according to Example 2 (TDZ6)), and treated every 2 days with growing doses of drugs, administered ip. […] The successive growing doses were 10 mg/kg, 12 mg/kg and finally 15 mg/kg, and the corresponding molar dose of the analogues. The stepping test was performed as previously described (Blume S R, Cass D K, Tseng K Y. Stepping test in mice: A reliable approach in determining forelimb akinesia in MPTP-induced Parkinsonism. Exp Neurol. 2009; 219:208-11) 1 h after drug injection, documented to be the time with the maximum TDZ serum concentration (Nagel D, Spranger S, Vincendeau M, Grau M, Raffegerst S, Kloo B, et al. Pharmacologic Inhibition of MALT1 Protease by Phenothiazines as a Therapeutic Approach for the Treatment of Aggressive ABC-DLBCL. Cancer Cell. 2012; 22:825-37). Briefly, the stepping test was performed on an open table and each trial was recorded using a digital video camera. The animal was allowed to settle at one edge of the table, then the experimenter would lift up the hind legs by pulling up on the tail, leaving only the forepaws touching the table, for a total distance of 1 m. The number of steps from both forepaws and the time used were computed."}, "[2]": {"tested_on": "t(6;11)-AML primary cells", "test": "Colonies forming assay in t(6;11)-AML primary cells", "type": "cell-based", "method": "(§3) After 24 h of treatment, a total of 5×10^2 ML2, SHI-1, HL60, SKNO-1 or NOMO-1 cells and 3×10^3 primary blasts from patients with t(6;11)—rearranged AML were seeded into 500 μl of MethoCult™ (H4230 and H4534 respectively, Stemcell Technologies, Meda M B, Italy), in 24-well plates and incubated at 37° C. Fourteen days after seeding, an adequate volume of a 1:6 solution of 3-[4,5-dimethylthiazol-2-yl]-2,5-diphenyltetrazolium bromide (MTT, Sigma-Aldrich-Merck) in Hanks' was added to semisolid medium. Images were acquired by optical microscope with camera, and colonies were counted using ImageJ software."}, "[3]": {"tested_on": "mice xenografted with HL60 or THP1", "test": "Flank injection xenograft, HL60 or THP1", "type": "in vivo, NSG mice", "details": "8 mg/kg daily i.p.", "method": "(§4) Animal experiments were approved by the animal ethics committee of University of Padova and by Italian Minister of Health n° 512/2019-PR, and were executed in accordance with national guidelines and regulations. For flank injection experiments, six NOD-SCID interleukin-2 receptor gamma null (NSG) mice between 6 and 8 weeks of age were injected subcutaneously with 2×10^6 SHI-1, HL60 or THP-1 cells per flank-injection. Each mouse received two flank-injections. When tumors reached an area of 25 mm^2, mice were randomized in 2 groups (control and TDZ-treated), and daily treated with intraperitoneally (ip) administered TDZ 8 mg/kg. Experimental endpoint is reached when tumors reached an area of 250 mm^2.\n(§5) TDZ was also used for further tests and particularly to test if it had same effects on leukemia growth in vivo in NOD/scid IL-2Rgnull (NSG) mice flank-injected with the SHI-1-t(6;11) or non-t(6;11) AML cell lines HL60 and THP-1. Xenografted tumor was allowed to grow up to ˜[…] before starting daily intraperitoneal (i.p.) TDZ administration (at 8 mg/kg concentration, below the previously described tolerated dose (Nagel D, Spranger S, Vincendeau M, Grau M, Raffegerst S, Kloo B, et al. Pharmacologic Inhibition of MALT1 Protease by Phenothiazines as a Therapeutic Approach for the Treatment of Aggressive ABC-DLBCL. Cancer Cell. 2012; 22:825-37))."}, "t(6;11) primary cells": {"tested_on": "t(6;11) primary cells", "test": "Intracellular Ca2+ measurement (Fluo-4 AM) in t(6;11) primary cells", "type": "cell-based", "details": "primary cultures of t(6;11) AML", "method": "as §2"}, "[4]": {"tested_on": "healthy bone marrow (HBM) cells", "test": "Apoptosis assay in healthy bone marrow cells", "type": "cell-based", "details": "24 and 48 h", "method": "as §1"}, "t(6;11) SHI-1 cells [5]": {"tested_on": "t(6;11) SHI-1 cells", "test": "Mitochondrial membrane potential (TMRE)", "type": "cell-based", "details": "6 and 24 h after treatment, compared with DMSO", "method": "Mitochondrial membrane potential was measured by using TMRE Assay Kit (ab113852, Abcam), following manufacturer's instructions Briefly, TMRE 200 nM diluted in BSA 0.2%-PBS1× was added for 20′ at 37° C. Cells were analyzed by flow cytometry using FC500."}, "SHI-1 xenografted mice": {"tested_on": "SHI-1 xenografted mice", "test": "Flank injection xenograft, SHI-1", "type": "in vivo, NSG mice", "details": "8 mg/kg daily i.p., compared with control (p<0.01 and p<0.001)", "method": "as §4, §5"}, "[6]": {"tested_on": "primary cultures from patients with t(6;11) AML", "test": "Apoptosis assay in primary t(6;11) AML cultures", "type": "cell-based", "details": "primary t(6;11) AML compared with non-t(6;11)-AML; 24 and 48 h", "method": "as §1"}, "[7]": {"tested_on": "non-t(6;11) HL60, NOMO-1, SKNO-1 cells", "test": "Colonies forming assay in non-t(6;11) AML cell lines", "type": "cell-based", "details": "24 h of treatment, other AML cell lines", "method": "as §3"}, "t(6;11) SHI-1 cells [8]": {"tested_on": "t(6;11) SHI-1 cells", "test": "Colonies forming assay in t(6;11) SHI-1 cells", "type": "cell-based", "details": "24 h pre-treatment, viable cells seeded in drug-free condition", "method": "as §3"}, "t(6;11) SHI-1 cells [9]": {"tested_on": "t(6;11) SHI-1 cells", "test": "Reactive oxygen species (CellROX) by flow cytometry", "type": "cell-based", "details": "6, 16 and 24 h after treatment, compared with DMSO", "method": "ROS production was monitored by flow cytometry using CellROX Deep Red Reagent (C10422, Invitrogen) following manufacturer's instructions. Briefly, CellROX Deep Red Reagent was added at a final concentration of 5 μM to the cells and incubated for 30 minutes at 37° C. Cells were washed three times with PBS, and analyzed by flow cytometry using Cytoflex (Beckman Coulter)."}, "[10]": {"tested_on": "other AML cell lines harboring other genetic mutations (HL60, NOMO1, SKNO-1)", "test": "Apoptosis assay in non-t(6;11) AML cell lines", "type": "cell-based", "details": "24 and 48 h", "method": "as §1"}}, "data": [{"smiles": "CSc1ccc2c(c1)N(CCC1CCCCN1CCOCCOCCN)c1ccccc1S2", "note": "(stereo not shown) [TDZ6]", "values": [{"measurement": "cytotoxic activity on t(6;11) AML cells (cell death)", "setting": "[1]", "result": "maintain cytotoxic activity"}, {"measurement": "mechanism of Ca2+ influx", "setting": "SHI-1 cells", "result": "same mechanism of Ca^2+ influx of TDZ"}, {"measurement": "neuroleptic effects (akinesia, stepping test)", "setting": "NSG mice", "result": "did not induce neuroleptic effects"}]}, {"smiles": "COCCOCCOCCN1CCCCC1CCN1c2ccccc2Sc2ccc(SC)cc21", "note": "(stereo not shown) [TDZ2]", "values": [{"measurement": "cytotoxic activity on t(6;11) AML cells (cell death)", "setting": "[1]", "result": "maintain cytotoxic activity"}, {"measurement": "mechanism of Ca2+ influx", "setting": "SHI-1 cells", "result": "same mechanism of Ca^2+ influx of TDZ"}, {"measurement": "neuroleptic effects (akinesia, stepping test)", "setting": "NSG mice", "result": "did not induce neuroleptic effects"}]}, {"smiles": "CSc1ccc2c(c1)N(CCC1CCCCN1C)c1ccccc1S2", "note": "(racemic) [TDZ, thioridazine]", "values": [{"measurement": "colony-forming ability", "setting": "[2]", "result": "abrogated colony-forming ability"}, {"measurement": "tumor growth", "setting": "[3]", "result": "not affected"}, {"measurement": "cytosolic Ca2+ influx", "setting": "t(6;11) primary cells", "result": "increased cytosolic Ca^2+ influx"}, {"measurement": "toxic effects", "setting": "[4]", "result": "no toxic effects"}, {"measurement": "apoptotic and dead cells", "setting": "[1]; SHI-1, 24 h of treatment", "result": 60.8, "unit": "%"}, {"measurement": "apoptotic and dead cells", "setting": "[1]; SHI-1, 48 h of treatment", "result": 84.3, "unit": "%"}, {"measurement": "apoptosis level after MLL-AF6 silencing", "setting": "[1]; SHI-1, treatment 16 h after MLL-AF6 silencing, 8, 24 and 30 h after treatment", "result": "significant rescue of apoptosis level"}, {"measurement": "intracellular Ca2+, MFI (Fluo-4 AM, flow cytometry)", "setting": "SHI-1 cells; 0 minutes post treatment", "result": 68.9}, {"measurement": "intracellular Ca2+, MFI (Fluo-4 AM, flow cytometry)", "setting": "SHI-1 cells; 1 minute post treatment", "result": 91.8}, {"measurement": "intracellular Ca2+, MFI (Fluo-4 AM, flow cytometry)", "setting": "SHI-1 cells; 3 minutes post treatment", "result": 85.8}, {"measurement": "intracellular Ca2+, MFI (Fluo-4 AM, flow cytometry)", "setting": "SHI-1 cells; 5 minutes post treatment", "result": 85.4}, {"measurement": "rise in intracellular Ca2+ concentration", "setting": "SHI-1 cells; Ca2+-containing buffer (external Ca2+ present)", "result": "triggers a rise in intracellular Ca^2+ concentration in the presence"}, {"measurement": "Ca2+ intake after EGTA pre-treatment", "setting": "SHI-1 cells; SHI-1, EGTA pre-treatment 30' before TDZ", "result": "Ca^2+ intake was prevented"}, {"measurement": "mitochondrial depolarization (TMRE)", "setting": "t(6;11) SHI-1 cells [5]", "result": "mitochondrial depolarization"}, {"measurement": "progression of tumor growth", "setting": "SHI-1 xenografted mice", "result": "significantly reduced the progression of tumor growth"}, {"measurement": "apoptosis", "setting": "[6]", "result": "induced apoptosis selectively"}, {"measurement": "clonogenic potential", "setting": "[7]", "result": "did not decrease the clonogenic potential"}, {"measurement": "side effects", "setting": "NSG mice; 8 mg/kg i.p. starting dose, previously tested", "result": "free of side effects"}, {"measurement": "neuroleptic effects (akinesia, stepping test)", "setting": "NSG mice", "result": "provokes severe central side effects"}, {"measurement": "colony-forming ability", "setting": "t(6;11) SHI-1 cells [8]", "result": "abrogated colony-forming ability"}, {"measurement": "reactive oxygen species (ROS)", "setting": "t(6;11) SHI-1 cells [9]", "result": "highly increased"}, {"measurement": "apoptosis and cell death", "setting": "[10]", "result": "almost no effects"}]}]}
